Source: patent US5750504A, “Antimicrobial proteins” (Zeneca Agrochemicals, priority 1996, dated 1998)

How the values were obtained:
[1] = tested on: Ascochyta pisi; assay: Antifungal activity assay (microspectrophotometry); assay type: cell-based; details: strain MUCL30164, host Pisum, inoculum Sp, period of incubation in AFP-solution 48
Method: (§1) Antifungal activity was measured by microspectrophotometry as previously described (Broekaert, 1990, FEMS Microbiol Lett, 69:55-60). Routinely, tests were performed with 20 μl of a (filter-sterilized) test solution and 80 μl of a suspension of fungal spores (2×10^4 spores/ml) in half strength potato dextrose broth (1/2 PDB). […] Control microcultures contained 20 μl of sterile distilled water and 80 μl of the fungal spore suspension.
(§2) Unless otherwise stated the test organism was Fusarium culmorum (strain IMI 180420) and incubation was done at 25° C. for 48 hours. Percent growth inhibition is defined as 100 times the ratio of the corrected absorbance of the control microculture minus the corrected absorbance of the test microculture over the corrected absorbance at 595 nm of the control microculture. The corrected absorbance values equal the absorbance at 595 nm of the culture measured after 48 hours minus the absorbance at 595 nm measured after 30 min.
(§3) The antifungal potency of the purified proteins was assessed on different plant pathogenic fungi, using the assay described in Example 1. Growth of fungi, collection and harvest of fungal spores and preparation of mycelial fragments were done as previously described (Broekaert et al, 1990, FEMS Microbiol Lett, 69:55-60). Serial dilutions of the antifungal proteins were applied to the fungi, either using growth medium SMF- (the synthetic growth medium of Example 1), medium SMF+ (medium SMF- supplemented with 1 mM CaCl2 and 50 mM KCl), growth medium 1/2 PDB- (half strength potato dextrose broth as in Example 1) or growth medium 1/2 PDB+ (medium 1/2 PDB- supplemented with 1 mM CaCl2 and 50 mM Kcl). The percent growth inhibition was measured by microspectrophotometry. The concentration required for 50% growth inhibition after 48 h of incubation (IC50 value) was calculated from the dose-reponse curves.
(§4) The abbreviations used are: IC50 =concentration required for 50% growth inhibition determined as described in Example 1; ND=not determined; Sp=spores; PrSp=spores pregerminated in the medium for 24 hours; MF=mycelial fragments preincubated for 48 hours in the medium prior to addition of the proteins; BHR=broad host range; SF=saprophytic fungus; SMF-=synthetic growth medium as described in Example 1; SMF+=SMF- supplemented with 1 mM CaCl2 and 50 mM KCl; 1/2PDB-=half strength potato dextrose broth as described in Example 1; 1/2PDB+=1/2PDB- supplemented with 1 mM CaCl2 and 50 mM KCl.

[2] = tested on: Botrytis cinerea; assay: Antifungal activity assay (microspectrophotometry); assay type: cell-based; details: strain K1147, host BHR, inoculum Sp, period of incubation in AFP-solution 48
Method: as §1, §2, §3, §4

[3] = tested on: Cladosporium sphaerospermum; assay: Antifungal activity assay (microspectrophotometry); assay type: cell-based; details: strain K0791, SF, inoculum Sp, period of incubation in AFP-solution 48
Method: as §1, §2, §3, §4

[4] = tested on: Fusarium culmorum; assay: Antifungal activity assay (microspectrophotometry); assay type: cell-based; details: for IC50: host Cereals, inoculum Sp, period of incubation in AFP-solution 48
Method: as §1, §2, §3, §4

[5] = tested on: Mycoshpaerella fijiensis; assay: Antifungal activity assay (microspectrophotometry); assay type: cell-based; details: strain FUL549; host Musa; medium 1/2PDB+; inoculum MF; period of incubation in AFP-solution 96
Method: as §1, §2, §3, §4

[6] = tested on: Penicillum digitatum; assay: Antifungal activity assay (microspectrophotometry); assay type: cell-based; details: host Citrus fruit, inoculum Sp, period of incubation in AFP-solution 48
Method: as §1, §2, §3, §4

[7] = tested on: Septoria tritici; assay: Antifungal activity assay (microspectrophotometry); assay type: cell-based; details: strain K1097, host Triticum, inoculum Sp, period of incubation in AFP-solution 48
Method: as §1, §2, §3, §4

[8] = tested on: Trichoderma viride; assay: Antifungal activity assay (microspectrophotometry); assay type: cell-based; details: strain K1127, SF, inoculum Sp, period of incubation in AFP-solution 48
Method: as §1, §2, §3, §4

[9] = tested on: Verticillium albo-atrum; assay: Antifungal activity assay (microspectrophotometry); assay type: cell-based; details: strain K0937, host Lycoperisicum, inoculum Sp, period of incubation in AFP-solution 48
Method: as §1, §2, §3, §4

[10] = tested on: Bacillus subtilis JHCC 553331; assay: Antibacterial activity assay (microspectrophotometry); assay type: cell-based
Method: Antibacterial activity was measured microspectrophotometrically as follows. A bacterial suspension was prepared by inoculating soft nutrient agarose (tryptone, 10 g/l; Seaplaque agarose (FMC), 5 g/l). Aliquots (80 μl) of the bacterial suspension (10^5 colony forming units per ml) were added to filter-sterilized samples (20 μl) in flat-bottom 96-well microplates. The absorbance at 595 nm of the culture was measured with the aid of a microplate reader after 30 minutes and 24 hours of incubation at 28° C. Percent growth inhibition was calculated as described above for the antifungal activity assay.
The antibacterial activities of Ah-AMP1 and Hs-AFP1 were measured on four gram positive bacteria (Bacillus subtilis JHCC 553331; Micrococcus luteus ATCC 93411; Staphylococcus aureus ATCC 25923; Streptococcus feacolis ATCC 29212) and two gram negative bacteria (Eschericia coli HB101 and Proteus vulgaris JHCC 558711).

[11] = tested on: crude α-amylase extract from guts of adult cockroaches; assay: Inhibition of α-amylase; assay type: biochemical, Blatta orientalis; details: cockroach gut enzyme; rates as high as 200 μg/ml
Method: A crude α-amylase extract was prepared from dissected guts of adult cockroaches (Blatta orientalis) by homogenising in 20 mM Tris/HCl, pH 7.5, 10 mM CaCl2 and removal of cell-debris by centrifugation. Human and porcine α-amylases were purchased from Sigma. Type 1-α-amylaseinhibitor from wheat (purchased from Sigma) was used as a positive control. Amylase extracts were incubated with peptides for 20 min at 30° C. prior to addition of starch and enzyme activity was detected using the method of Bernfeld (1955, Methods Enzymol, Colwick and Kaplan eds, vol 1:149-158).
The α-amylase inhibition activities of Hs-AFP1 and Ah-AMP1 were compared on α-amylases from the three sources to that of the Sorgum bicolor homologue SIα3, previously reported to inhibit insect gut α-amylases (Bloch and Richardson, 1991, FEBS Lett, 279:101-104). SIα3 inhibited the activity of the enzymes from insect gut and human saliva to greater than 70% at rates as low as 5 μg/ml.

[12] = tested on: fungi; assay: Morphological effect on fungal hyphae (fungi in general); assay type: cell-based

Hs-AFP1: Heuchera sanquinea antifungal protein 1; 5 kDa polypeptide purified from seeds, 54 amino acids, SEQ ID NO 1 (DGVKLCDVPSGTWSGHCGSSSKCSQQCKDREHFAYGGACHYQFPSVKCFCKRQC)
IC50 ([1]; medium SMF+): > 5 mg/L
IC50 ([1]; medium SMF-): 1.5 mg/L
IC50 ([2]; medium 1/2PDB+): 25 mg/L
IC50 ([2]; medium 1/2PDB-): 6 mg/L
IC50 ([3]; medium 1/2PDB+): 3 mg/L
IC50 ([3]; medium 1/2PDB-): 1 mg/L
antifungal activity on Fusarium culmorum (in words) ([4]; in 1/2PDB+): highly active
IC50 ([4]; strain IMI180420, medium SMF+): 1 mg/L
IC50 ([4]; strain IMI180420, medium SMF-): 0.5 mg/L
IC50 ([4]; strain K0311, medium 1/2PDB+): 3 mg/L
IC50 ([4]; strain K0311, medium 1/2PDB-): 1 mg/L
IC50 [5]: 12.5 mg/L
IC50 ([6]; strain K0679, medium 1/2PDB-): 1 mg/L
IC50 ([6]; strain K0879, medium 1/2PDB+): 3 mg/L
IC50 ([7]; medium 1/2PDB+): 3 mg/L
IC50 ([7]; medium 1/2PDB-): 0.5 mg/L
IC50 ([8]; medium 1/2PDB+): > 100 mg/L
IC50 ([8]; medium 1/2PDB-): 15 mg/L
IC50 ([9]; medium 1/2PDB+): 30 mg/L
IC50 ([9]; medium 1/2PDB-): 12 mg/L
inhibition of bacterial growth ([10]; tested at 200 μg/ml): did not inhibit the growth
inhibition of α-amylase activity [11]: no inhibition
hyperbranching of fungi [12]: cause hyperbranching
interference with fungal growth processes (hyphal length) [12]: reduction in hyphal length

Ah-AMP1: Aesculus hippocastanum antimicrobial protein 1; 5 kDa polypeptide purified from seeds, 50 amino acids, SEQ ID NO 2 (LCNERPSQTWSGNCGNTAHCDKQCQDWEKASHGACHKRENHWKCFCYFNC)
IC50 ([1]; medium SMF+): 15 mg/L
IC50 ([1]; medium SMF-): 0.8 mg/L
IC50 ([2]; medium 1/2PDB+): > 100 mg/L
IC50 ([2]; medium 1/2PDB-): 25 mg/L
IC50 ([3]; medium 1/2PDB+): 12 mg/L
IC50 ([3]; medium 1/2PDB-): 0.5 mg/L
IC50 ([4]; strain IMI180420, medium SMF+): 25 mg/L
IC50 ([4]; strain IMI180420, medium SMF-): 1.5 mg/L
IC50 ([4]; strain K0311, medium 1/2PDB+): > 100 mg/L
IC50 ([4]; strain K0311, medium 1/2PDB-): 12 mg/L
IC50 [5]: 0.75 mg/L
IC50 ([6]; strain K0679, medium 1/2PDB-): 6 mg/L
IC50 ([6]; strain K0879, medium 1/2PDB+): 25 mg/L
IC50 ([7]; medium 1/2PDB+): 1.5 mg/L
IC50 ([7]; medium 1/2PDB-): 0.5 mg/L
IC50 ([8]; medium 1/2PDB+): > 100 mg/L
IC50 ([8]; medium 1/2PDB-): > 100 mg/L
IC50 ([9]; medium 1/2PDB+): > 100 mg/L
IC50 ([9]; medium 1/2PDB-): 6 mg/L
inhibition of bacterial growth ([10]; at 100 μg/ml): inhibited growth
inhibition of α-amylase activity [11]: no inhibition
hyperbranching of fungi [12]: do not
interference with fungal growth processes (hyphal length) [12]: reduction in hyphal length
